# The source made the active and inactive calls. The calls are words filed in the database; no cut-off is given here.
# Experiments:
# [1] = molecular target: T1, Transient receptor potential cation channel subfamily M member 5 (Homo sapiens, UniProt Q9NZQ8); assay: Agonist activity at human TRPM5 expressed in CHO-K1 cells assessed as increase in relative fluorescence unit measured for 2 mins by FLIPR based membrane potential assay; assay type: cell-based
# T1 sequence (Q9NZQ8 whole entry): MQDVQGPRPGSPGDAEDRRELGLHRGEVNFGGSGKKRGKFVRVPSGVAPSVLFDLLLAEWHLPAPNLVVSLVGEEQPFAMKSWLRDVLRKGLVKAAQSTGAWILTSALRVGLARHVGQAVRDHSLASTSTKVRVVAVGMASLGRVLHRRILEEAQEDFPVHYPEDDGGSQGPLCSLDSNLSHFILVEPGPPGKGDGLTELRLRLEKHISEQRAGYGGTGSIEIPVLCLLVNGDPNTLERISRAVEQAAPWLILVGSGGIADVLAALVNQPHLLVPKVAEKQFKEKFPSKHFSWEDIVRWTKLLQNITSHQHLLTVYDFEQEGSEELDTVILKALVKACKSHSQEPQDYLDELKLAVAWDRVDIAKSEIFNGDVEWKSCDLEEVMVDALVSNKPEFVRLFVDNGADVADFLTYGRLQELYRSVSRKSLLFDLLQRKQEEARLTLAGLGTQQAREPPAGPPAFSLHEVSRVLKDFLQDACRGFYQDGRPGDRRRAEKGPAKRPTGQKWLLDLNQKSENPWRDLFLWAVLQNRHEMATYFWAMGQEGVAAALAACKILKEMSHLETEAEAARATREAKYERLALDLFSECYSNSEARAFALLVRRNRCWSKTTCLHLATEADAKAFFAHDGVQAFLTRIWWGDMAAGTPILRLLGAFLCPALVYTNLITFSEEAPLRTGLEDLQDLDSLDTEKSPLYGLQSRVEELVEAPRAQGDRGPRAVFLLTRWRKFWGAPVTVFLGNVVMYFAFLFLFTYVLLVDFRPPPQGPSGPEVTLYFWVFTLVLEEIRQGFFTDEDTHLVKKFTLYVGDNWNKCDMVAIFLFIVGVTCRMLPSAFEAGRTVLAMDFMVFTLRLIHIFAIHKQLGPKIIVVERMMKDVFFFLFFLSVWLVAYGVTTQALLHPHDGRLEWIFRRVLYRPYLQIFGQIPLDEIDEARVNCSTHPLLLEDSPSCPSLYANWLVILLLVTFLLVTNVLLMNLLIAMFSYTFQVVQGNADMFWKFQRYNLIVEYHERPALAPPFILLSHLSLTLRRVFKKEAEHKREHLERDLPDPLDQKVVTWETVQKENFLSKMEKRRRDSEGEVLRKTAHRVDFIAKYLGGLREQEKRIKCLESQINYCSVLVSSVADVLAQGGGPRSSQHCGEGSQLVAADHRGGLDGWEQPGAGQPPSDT
# [2] = molecular target: Transient receptor potential cation channel subfamily M member 4 (Homo sapiens, UniProt Q8TD43); assay: Agonist activity at human TRPM4 expressed in CHO-K1 cells assessed as increase in relative fluorescence unit by measuring membrane potential by FLIPR assay; assay type: cell-based
# [3] = molecular target: T2, Transient receptor potential cation channel subfamily M member 5 (Homo sapiens) (UniProt Q9NZQ8); assay: Agonist activity at human TRPM5 expressed in human Caco-2 cells assessed as increase in acetylcholine release at 50 uM incubated for 18 hrs by mass spectrometric analysis; assay type: cell-based; conditions: filed as agonist
# T2 sequence (whole entry): T1 sequence (Q9NZQ8 whole entry)
# [4] = molecular target: T3, Transient receptor potential cation channel subfamily M member 5 (Mus musculus) (UniProt Q9JJH7); assay: Binding affinity to mouse colon mucosal epithelium TRPM5 assessed as increase in short circuit current; assay type: tissue-based; conditions: Colonic epithelium, filed as agonist
# T3 sequence (whole entry): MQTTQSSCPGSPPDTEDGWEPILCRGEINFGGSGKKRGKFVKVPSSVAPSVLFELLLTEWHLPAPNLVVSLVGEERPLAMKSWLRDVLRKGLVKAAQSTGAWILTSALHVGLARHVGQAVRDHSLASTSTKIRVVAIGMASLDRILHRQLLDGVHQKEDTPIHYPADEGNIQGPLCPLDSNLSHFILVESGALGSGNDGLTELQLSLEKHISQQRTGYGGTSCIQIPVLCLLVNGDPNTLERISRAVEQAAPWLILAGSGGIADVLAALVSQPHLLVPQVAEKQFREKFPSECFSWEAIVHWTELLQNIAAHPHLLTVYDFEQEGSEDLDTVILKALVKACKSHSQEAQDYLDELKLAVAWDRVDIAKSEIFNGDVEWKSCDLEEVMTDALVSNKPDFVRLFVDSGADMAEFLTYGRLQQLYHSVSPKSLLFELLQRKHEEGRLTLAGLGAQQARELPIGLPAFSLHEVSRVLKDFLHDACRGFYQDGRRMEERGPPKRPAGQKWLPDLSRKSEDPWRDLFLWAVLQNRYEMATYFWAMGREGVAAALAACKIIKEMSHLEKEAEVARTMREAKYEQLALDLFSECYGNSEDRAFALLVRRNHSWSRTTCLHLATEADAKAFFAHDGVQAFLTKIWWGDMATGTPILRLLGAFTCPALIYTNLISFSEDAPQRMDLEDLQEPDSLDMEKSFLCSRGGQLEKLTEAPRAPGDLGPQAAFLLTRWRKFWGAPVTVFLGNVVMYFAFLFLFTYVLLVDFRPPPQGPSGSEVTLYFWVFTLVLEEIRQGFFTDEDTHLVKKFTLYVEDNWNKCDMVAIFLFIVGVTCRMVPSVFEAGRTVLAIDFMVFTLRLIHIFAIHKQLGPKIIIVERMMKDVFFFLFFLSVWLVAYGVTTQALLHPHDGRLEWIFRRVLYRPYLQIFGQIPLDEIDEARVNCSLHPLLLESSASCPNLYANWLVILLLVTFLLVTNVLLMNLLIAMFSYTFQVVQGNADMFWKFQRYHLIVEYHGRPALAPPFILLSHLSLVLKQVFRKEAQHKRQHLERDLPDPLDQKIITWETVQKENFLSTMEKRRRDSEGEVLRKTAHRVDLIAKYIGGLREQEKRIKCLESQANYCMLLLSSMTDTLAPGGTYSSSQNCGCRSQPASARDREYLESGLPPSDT
# Mus musculus [5] = assay: Induction of gastrointestinal motility in CD-1 mouse assessed as increase in fecal weight at 10 to 100 mg/kg, po measured upto 6 hrs; assay type: functional, organism-based; conditions: dose 10-100 mg/kg
# Mus musculus [6] = assay: Induction of gastrointestinal motility in CD-1 mouse assessed as increase in fecal water content at 10 to 100 mg/kg, po measured upto 6 hrs; assay type: functional, organism-based; conditions: dose 10-100 mg/kg
# [7] = molecular target: T1, Transient receptor potential cation channel subfamily M member 5; assay: Agonist activity at human TRPM5 in HEK293T cells by FLIPR based assay; assay type: cell-based
# [8] = molecular target: T1, Transient receptor potential cation channel subfamily M member 5; assay: Agonist activity at human TRPM5 expressed in HEK cells by whole cell electrophysiology method; assay type: cell-based
# [9] = Intrinsic clearance in Sprague-Dawley rat; assay type: ADME
# [10] = molecular target: T1, Transient receptor potential cation channel subfamily M member 5; assay: Agonist activity at TRPM5 (unknown origin)
# [11] = Solubility of the compound in JP2 solution; assay type: physicochemical
# [12] = Solubility of the compound in JP1 solution; assay type: physicochemical
# [13] = Metabolic stability in human liver microsomes assessed as half life; assay type: ADME, Microsome; conditions: liver microsomes
# [14] = Half-life in Sprague-Dawley rat; assay type: ADME; conditions: in vivo
# [15] = Metabolic stability in human liver microsomes assessed as intrinsic clearance; assay type: ADME, Microsome; conditions: read-out: CLH
# Sequence of Transient receptor potential cation channel subfamily M member 4 (Q8TD43 whole entry): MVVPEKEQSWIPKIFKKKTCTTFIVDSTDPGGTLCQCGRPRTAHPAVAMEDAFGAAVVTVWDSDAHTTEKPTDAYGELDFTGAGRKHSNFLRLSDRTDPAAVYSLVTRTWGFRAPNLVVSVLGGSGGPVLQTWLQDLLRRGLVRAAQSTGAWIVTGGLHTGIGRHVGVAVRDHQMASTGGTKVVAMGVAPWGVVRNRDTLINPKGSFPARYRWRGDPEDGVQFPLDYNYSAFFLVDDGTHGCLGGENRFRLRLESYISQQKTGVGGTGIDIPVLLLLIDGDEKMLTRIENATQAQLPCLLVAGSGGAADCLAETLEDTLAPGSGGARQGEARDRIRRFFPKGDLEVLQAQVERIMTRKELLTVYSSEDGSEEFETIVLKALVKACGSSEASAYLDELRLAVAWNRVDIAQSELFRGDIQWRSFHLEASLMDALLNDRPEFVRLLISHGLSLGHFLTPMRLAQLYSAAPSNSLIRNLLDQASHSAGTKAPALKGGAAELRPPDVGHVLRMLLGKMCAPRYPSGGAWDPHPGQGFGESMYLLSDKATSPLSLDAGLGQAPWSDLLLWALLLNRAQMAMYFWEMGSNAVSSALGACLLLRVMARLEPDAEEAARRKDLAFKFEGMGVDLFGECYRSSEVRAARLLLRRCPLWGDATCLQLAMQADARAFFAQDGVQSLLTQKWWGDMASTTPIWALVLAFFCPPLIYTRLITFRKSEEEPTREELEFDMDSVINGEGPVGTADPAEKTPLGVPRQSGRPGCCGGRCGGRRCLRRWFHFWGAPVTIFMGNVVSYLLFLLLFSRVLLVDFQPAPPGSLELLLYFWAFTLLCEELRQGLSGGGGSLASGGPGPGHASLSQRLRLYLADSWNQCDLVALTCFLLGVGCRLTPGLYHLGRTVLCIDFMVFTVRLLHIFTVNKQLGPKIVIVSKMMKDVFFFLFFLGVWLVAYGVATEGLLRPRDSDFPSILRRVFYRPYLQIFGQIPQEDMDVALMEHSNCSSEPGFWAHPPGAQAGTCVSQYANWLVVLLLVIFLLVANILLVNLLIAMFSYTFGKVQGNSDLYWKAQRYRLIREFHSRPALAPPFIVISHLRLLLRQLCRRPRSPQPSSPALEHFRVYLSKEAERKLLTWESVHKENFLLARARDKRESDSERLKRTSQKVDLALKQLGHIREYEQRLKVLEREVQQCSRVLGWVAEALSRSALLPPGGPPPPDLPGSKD
EC50 [1],Structure (SMILES),further results
15800 nM,COC[C@@H]1Cc2ccc(Cl)cc2[C@H](c2ccccc2)N1,
10000 nM,Cc1ccc2c(c1)C[C@@H](CO)N[C@H]2c1ccccc1,
200 nM,OC[C@@H]1Cc2ccc(Cl)cc2[C@H](c2cc(F)cc(F)c2)N1,EC50 [2]: 589 nM
63.1 nM,OC[C@@H]1Cc2cc(Cl)ccc2[C@H](c2cc(F)cc(Cl)c2)N1,
1580 nM,OC[C@@H]1Cc2cc(Cl)ccc2[C@H](c2ccccc2Cl)N1,
> 31600 nM,OC[C@@H]1Cc2cccc(Cl)c2[C@H](c2ccccc2)N1,
,N#Cc1ccc2c(c1)C[C@H](CO)N[C@@H]2c1cc(F)cc(Cl)c1,Activity [3]: Active; Activity [4]: Active; Activity (Mus musculus [5]): Active; Activity (Mus musculus [6]): Active
251 nM,N#Cc1cc(F)cc([C@@H]2N[C@H](CO)Cc3cc(Cl)ccc32)c1,
> 31600 nM,CN1[C@H](CO)Cc2ccc(Cl)cc2[C@@H]1c1ccccc1,
794 nM,OC[C@@H]1Cc2ccc(Cl)cc2[C@H](c2ccccc2)N1 (racemic),EC50 [2]: 24500 nM
> 31600 nM,OC[C@@H]1Cc2ccccc2[C@H](c2ccccc2)N1,
200 nM,OC[C@@H]1Cc2ccc(Cl)cc2[C@H](c2cc(Cl)cc(Cl)c2)N1,EC50 [2]: 8910 nM
3160 nM,OC[C@@H]1Cc2cc(Cl)cnc2[C@H](c2cc(F)cc(Cl)c2)N1,
10000 nM,Cc1ccc2c(c1)[C@H](c1ccccc1)N[C@H](CO)C2,
20000 nM,N#Cc1ccc2c(c1)C[C@@H](CO)N[C@H]2c1cc(F)cc(Cl)c1,
50.1 nM,OC[C@@H]1Cc2cc(Cl)c(Cl)cc2[C@H](c2ccccc2)N1,
7940 nM,N#Cc1ccc2c(c1)[C@H](c1cc(F)cc(Cl)c1)N[C@H](CO)C2,

EC50 [1],Structure (SMILES),further results
100 nM,OC[C@@H]1Cc2ccc(Cl)cc2[C@H](c2cc(F)cc(Cl)c2)N1,EC50 [2]: 1350 nM
316 nM,OC[C@@H]1Cc2ccc(Cl)cc2[C@H](c2cccc(F)c2)N1,EC50 [2]: 1700 nM
> 31600 nM,OC[C@@H]1Cc2ccc(Cl)cc2[C@H](c2ccncc2)N1,
,C=CC(C)(C)c1cc2cc3c(cc2oc1=O)O[C@H](C(C)(C)OC(C)=O)C3,EC50 [7]: 27000 nM
> 31600 nM,OC[C@H]1Cc2ccc(Cl)cc2[C@H](c2ccccc2)N1,
631 nM,C=CCNC(=S)/N=c1/sc2ccccc2n1C,EC50 [8]: 9400 nM; CLint scaled [9]: 540 mL/min/kg; EC50 [10]: 10000 nM; solubility [11]: 0.9 µM; solubility [12]: 1.7 µM; half-life [13]: 4.1 min; half-life [14]: 2.6 min; CLint scaled [15]: 338 mL/min/kg
,Clc1cnc(CNc2cc3sncc3cc2Cl)s1,Activity [3]: Active
6310 nM,Cc1ccc([C@@H]2N[C@H](CO)Cc3ccc(Cl)cc32)cc1,
316 nM,OC[C@@H]1Cc2cc(Cl)c(F)cc2[C@H](c2ccccc2)N1,
> 31600 nM,OC[C@@H]1Cc2ccc(Cl)cc2[C@@H](c2ccccc2)N1 (racemic),
501 nM,OC[C@@H]1Cc2ccc(Cl)cc2[C@H](c2cccc(Cl)c2)N1,EC50 [2]: 1820 nM
> 31600 nM,OCc1cc2ccc(Cl)cc2c(-c2ccccc2)n1,
501 nM,OC[C@@H]1Cc2cc(Cl)ccc2[C@H](c2ccccc2)N1,EC50 [2]: 26300 nM
1260 nM,OC[C@@H]1Cc2c(Cl)cccc2[C@H](c2ccccc2)N1,
7940 nM,OC[C@@H]1Cc2ccc(Cl)cc2[C@H](c2ccccn2)N1,
> 31600 nM,Cc1ccccc1[C@@H]1N[C@H](CO)Cc2ccc(Cl)cc21,
1000 nM,Cc1cc([C@@H]2N[C@H](CO)Cc3ccc(Cl)cc32)ccc1Cl,EC50 [2]: 25700 nM

Structure (SMILES),EC50 [1],further results
OC[C@@H]1Cc2cc(Cl)ncc2[C@H](c2cc(F)cc(Cl)c2)N1,2000 nM,
OC[C@@H]1Cc2ccc(Cl)cc2[C@H](c2cccnc2)N1,20000 nM,

# Reference: ChEMBL document CHEMBL5150049, “The discovery of (1R, 3R)-1-(3-chloro-5-fluorophenyl)-3-(hydroxymethyl)-1,2,3,4-tetrahydroisoquinoline-6-carbonitrile, a potent and selective agonist of human transient receptor potential cation channel subfamily m member 5 (TRPM5) and evaluation of as a potential gastrointestinal prokinetic agent” (Bioorg Med Chem, 2022)
